Assay results taken from US9168286B2, “Methods and compositions for use in treatment of patients with autoantibody positive disease” (Human Genome Sciences, Inc., priority 2005, dated 2015).

Tested on: subjects with SLE
Assay: Phase 2 clinical trial of belimumab in SLE with 24-week extension and continuation trial: disease activity (SELENA SLEDAI, SLE Flare Index, PGA, BILAG, SF-36)
Format: in vivo, human
Description: Further, response rates among the treatment groups in the trial were also analyzed using a combined response endpoint (row 1), which combined a measure of global disease activity as measured by the SS score, with a measure of a patient's overall condition as assessed by the PGA disease activity index and a measure of disease in specific organ systems as measured by the BILAG scale.
Serum autoantibodies, Ig isotypes and complement (C3, C4) were measured at 1-3 month intervals. […]

[1] = ANA+ subjects, week 52, 1.0 mg/kg, N = 78
[2] = ANA+ subjects, week 52, 4.0 mg/kg, N = 79
[3] = ANA+ subjects, week 52, 10.0 mg/kg, N = 78

belimumab: an antibody that neutralizes Neutrokine-alpha protein
dose response in efficacy (1, 4, 10 mg/kg): no dose response in efficacy | mean percent change from baseline PGA (ANA+ subjects vs ANA+ placebo, as early as week 4, also weeks 8, 16, 48 (p<0.05), 52 (p<0.01)): significant improvement | mean SF-36 Physical Component Score (SF-36 PCS) (ANA+ subjects vs ANA+ placebo, weeks 12, 24, 48, 52, p<0.05): significant improvements | frequency of increase in prednisone from ≦[…] to >[…] (ANA+ subjects, as early as week 8, p<0.05 over weeks 8-12 and 32-40): significant reduction | combined response endpoint (SS, PGA, BILAG) (ANA+ subjects, p=0.0058): significant response | % of subjects with no worsening by PGA (<0.3 point increase from baseline) [1]: (89.7%) | % of subjects with reduction in SELENA SLEDAI ≧4 [1]: (52.6%) | subjects with no worsening by PGA (<0.3 point increase from baseline), number [1]: 70 | subjects with reduction in SELENA SLEDAI ≧4, number [1]: 41 | % of subjects with no worsening by PGA (<0.3 point increase from baseline) [2]: (88.6%) | % of subjects with reduction in SELENA SLEDAI ≧4 [2]: (48.1%) | subjects with no worsening by PGA (<0.3 point increase from baseline), number [2]: 70 | subjects with reduction in SELENA SLEDAI ≧4, number [2]: 38 | % of subjects with no worsening by PGA (<0.3 point increase from baseline) [3]: (92.3%) | % of subjects with reduction in SELENA SLEDAI ≧4 [3]: (47.4%) | subjects with no worsening by PGA (<0.3 point increase from baseline), number [3]: 72 | subjects with reduction in SELENA SLEDAI ≧4, number [3]: 37 | subjects with no worsening by PGA (<0.3 point increase from baseline), number (ANA+ subjects, week 52, All Active, N = 235, P 0.0027 vs placebo): 212 | % of subjects with no worsening by PGA (<0.3 point increase from baseline) (ANA+ subjects, week 52, All Active, N = 235, P 0.0027 vs placebo (76.7%)): (90.2%) | subjects with reduction in SELENA SLEDAI ≧4, number (ANA+ subjects, week 52, All Active, N = 235, P 0.1169 vs placebo): 116 | increases in BILAG organ domain score: musculoskeletal (ANA+ subjects, week 52, p<0.008): fewer increases in score | increases in BILAG organ domain score: neurological (ANA+ subjects, week 52, p<0.038): fewer increases in score | increases in BILAG organ domain score: general (ANA+ subjects, week 52, p<0.15): trend toward fewer increases in score | increases in BILAG organ domain score: renal (ANA+ subjects, week 52, p<0.15): trend toward fewer increases in score | reduction in SELENA SLEDAI (SS) score (ANA+ subjects, week 52, p=0.0435): 29% | increases in BILAG organ domain score: cardiovascular & respiratory (ANA+ subjects, week 52, p=0.060): trend toward fewer increases in score | subjects with increases of prednisone to >[…] (belimumab-treated, placebo ~15%): ~7% | PGA score (by week 16 (p=0.016) through week 52 (p<0.002), all active vs. placebo): improved | dosage of prednisone necessary to ameliorate disease manifestations (lupus patients, IV days 0, 14, 28 then every four weeks until week 52): effective in reducing the dosage of the corticosteroid prednisone | symptoms associated with lupus (patients with ANA titer 1:80 or greater and/or ≧30 IU/mL anti-dsDNA, IV days 0, 14, 28 then every four weeks until week 52): significantly ameliorated symptoms associated with lupus | combined response rate (seropositive subjects (n=175) who completed 128 weeks): 63% | combined response rate (seropositive subjects (n=321), all belimumab treatment groups combined, week 56, placebo 35%, p<0.05): 49% | SLE flare rate (SFI), percent of subjects with at least one flare (seropositive subjects, fifth six-month interval): 33% | SLE flare rate (SFI), percent of subjects with at least one flare (seropositive subjects, first six-month interval, placebo 76%): 72% | SLE flare rate (SFI), percent of subjects with at least one flare (seropositive subjects, fourth six-month interval): 30% | SLE flare rate (SFI), percent of subjects with at least one flare (seropositive subjects, second six-month interval, placebo 73%): 61% | SLE flare rate (SFI), percent of subjects with at least one flare (seropositive subjects, third six-month interval): 57% | combined response rate (seropositive subjects, weeks 76-128 of continuous therapy (ITT analysis)): 55% | combined response rate (subjects with baseline Anti-dsDNA autoantibodies, week 52): 47% | combined response rate (subjects with baseline Anti-dsDNA autoantibodies, week 128): 53% | combined response rate (subjects with baseline RNP autoantibodies, week 52): 42% | combined response rate (subjects with baseline RNP autoantibodies, week 128): 52% | combined response rate (subjects with baseline Ro autoantibodies, week 52): 41% | combined response rate (subjects with baseline Ro autoantibodies, week 128): 51% | combined response rate (subjects with baseline aCl autoantibodies, week 52): 51% | combined response rate (subjects with baseline aCl autoantibodies, week 128): 51% | composite numerical BILAG scores (vs. placebo): no significant differences | percent of seropositive subjects with new 1A or 2B BILAG flares (week 52, placebo 19%, p=0.0152): 9% | seropositive subjects with worsening PGA scores (week 52, placebo 23%, p=0.0027): 10% | percent of seropositive subjects with SS>4 point improvement (weeks 76-128): 58-60% | percent of seropositive subjects with new 1A or 2B BILAG flares (weeks 96-128): 6-7% | seropositive subjects with worsening PGA scores (weeks 96-128): 7-9%
